Measurements reported in US20200369728A1, “PEPTIDOMIMETIC MACROCYCLES AND USES THEREOF” (Aileron Therapeutics, Inc., priority 2015, published 2020).
Bridge positions count the residues as written; N and C are the ends. Square brackets hold non-standard residues; d marks the D form. Peptide text beside a SMILES is read from it. R8 = C=CCCCCCC[C@@](C)(N)C(=O)O; hLeu = CC(C)CC[C@H](N)C(=O)O; S5 = C=CCCC[C@](C)(N)C(=O)O; Ac3c = NC1(C(=O)O)CC1

Assays:
SJSA-1 cells = assay: Cell lysis by peptidomimetic macrocycles (LDH release); assay type: cell-based; conditions: SJSA-1, 1 h
Description: SJSA-1 cells were plated out one day in advance in clear flat-bottom plates (Costar, catalog number 353072) at 7500 cells/well with 100 ul/well of growth media, leaving row H columns 10-12 empty for media alone. On the day of the assay, media was exchanged with RPMI 1% FBS media, 90 uL of media per well.
10 mM stock solutions of the peptidomimetic macrocycles were prepared in 100% DMSO. Peptidomimetic macrocycles were then diluted serially in 100% DMSO, and then further diluted 20-fold in sterile water to prepare working stock solutions in 5% DMSO/water of each peptidomimetic macrocycle at concentrations ranging from 500 μM to 62.5 μM.
10 μL of each compound was added to the 90 uL of SJSA-1 cells to yield final concentrations of 50 μM to 6.25 μM in 0.5% DMSO-containing media. The negative control (non-lytic) sample was 0.5% DMSO alone and positive control (lytic) samples include 10 μM Melittin and 1% Triton X-100.
Cell plates were incubated for 1 hour at 37° C. After the 1 hour incubation, the morphology of the cells is examined by microscope and then the plates were centrifuged at 1200 rpm for 5 minutes at room temperature. 40 μL of supernatant for each peptidomimetic macrocycle and control sample is transferred to clear assay plates. LDH release is measured using the LDH cytotoxicity assay kit from Caymen, catalog #1000882.

Caspase 3 = Caspase 3 detection assay in SJSA1 cells; assay type: cell-based; conditions: SJSA1, 48 h, Caspase 3 activation over DMSO-treated cells

## CC[C@H](C)[C@H](NC(=O)[C@H](C)NC(=O)[C@H](C)NC(=O)[C@]1(C)CCCC=CCCCCCC[C@@](C)(NC(=O)[C@H](Cc2ccccc2)NC(=O)[C@@H](NC(=O)[C@H](CC(C)C)NC(C)=O)[C@@H](C)O)C(=O)N[C@@H](C)C(=O)N[C@@H](Cc2c[nH]cn2)C(=O)N[C@@H](Cc2c[nH]c3ccccc23)C(=O)N[C@@H](C)C(=O)N[C@@H](CCC(N)=O)C(=O)N[C@@H](CC(C)C)C(=O)N1)C(=O)N[C@H](C)C(N)=O [compound 170] (Ac-LTF[R8]AHWAQL[S5]AAI[dA]-NH2; staple 4-11)
SJSA-1 cells
  6.25 μM % Lysed cells (1 h LDH): 2%
  25 μM % Lysed cells (1 h LDH): 1%
  50 μM % Lysed cells (1 h LDH): −1%
Caspase 3; 0.3 μM
  caspase 0.3 μM: 1
Caspase 3; 3 μM
  caspase 3 μM: 1
Caspase 3; 10 μM
  caspase 10 μM: 16
Caspase 3; 30 μM
  caspase 30 μM: 20

## CC[C@H](C)[C@H](NC(=O)[C@H](C)NC(=O)[C@H](C)NC(=O)[C@]1(C)CCCC=CCCCCCC[C@@](C)(NC(=O)[C@H](Cc2ccccc2)NC(=O)[C@@H](NC(=O)[C@H](CCC(=O)O)NC(C)=O)[C@@H](C)O)C(=O)N[C@@H](CCC(=O)O)C(=O)N[C@@H](Cc2c[nH]cn2)C(=O)N[C@@H](Cc2c[nH]c3ccccc23)C(=O)N[C@@H](C)C(=O)N[C@@H](CCC(N)=O)C(=O)N[C@@H](CC(C)C)C(=O)N1)C(=O)N[C@H](C)C(N)=O (single isomer, unassigned) [compound 174]
SJSA-1 cells
  6.25 μM % Lysed cells (1 h LDH): 5%
  25 μM % Lysed cells (1 h LDH): 2%
  50 μM % Lysed cells (1 h LDH): 5%

## CC(C)CC[C@@H]1NC(=O)[C@H](CCC(N)=O)NC(=O)[C@H](C)NC(=O)[C@H](Cc2c[nH]c3ccccc23)NC(=O)[C@H](Cc2ccc(O)cc2)NC(=O)[C@H](CCC(=O)O)NC(=O)[C@](C)(NC(=O)[C@H](Cc2ccccc2)NC(=O)[C@@H](NC(=O)[C@H](CC(C)C)NC(=O)CN(C)C)[C@@H](C)O)CCCCCCC=CCCC[C@@](C)(C(=O)N[C@@H](CO)C(=O)N[C@@H](C)C(=O)N[C@@H](C)C(N)=O)NC1=O [compound 279]
SJSA-1 cells
  6.25 μM % Lysed cells (1 h LDH): 6%
  25 μM % Lysed cells (1 h LDH): 5%
  50 μM % Lysed cells (1 h LDH): 6%

## CC[C@H](C)[C@H](NC(=O)[C@H](C)NC(=O)[C@H](C)NC(=O)[C@]1(C)CCCC=CCCCCCC[C@@](C)(NC(=O)[C@H](Cc2ccccc2)NC(=O)[C@@H](NC(=O)[C@H](CC(C)C)NC(C)=O)[C@@H](C)O)C(=O)N[C@@H](CCC(=O)O)C(=O)N[C@@H](Cc2ccc(C(=O)O)cc2)C(=O)N[C@@H](Cc2c[nH]c3cc(Cl)ccc23)C(=O)N[C@@H](C)C(=O)N[C@@H](CCC(N)=O)C(=O)N[C@@H](CC2CCC2)C(=O)N1)C(=O)N[C@H](C)C(N)=O (single isomer, unassigned) [compound 335]
SJSA-1 cells
  6.25 μM % Lysed cells (1 h LDH): 0%
  25 μM % Lysed cells (1 h LDH): 0%
  50 μM % Lysed cells (1 h LDH): 1%

## CC[C@H](C)[C@H](NC(=O)[C@H](C)NC(=O)[C@H](C)NC(=O)[C@]1(C)CCCC=CCCCCCC[C@@](C)(NC(=O)[C@H](Cc2ccccc2)NC(=O)[C@@H](NC(=O)[C@H](CC(C)C)NC(C)=O)[C@@H](C)O)C(=O)N[C@@H](CCC(=O)O)C(=O)N[C@@H](Cc2ccc(O)cc2)C(=O)N[C@@H](Cc2c[nH]c3ccccc23)C(=O)N[C@@H](C)C(=O)N[C@@H](CCC(N)=O)C(=O)N[C@@H](CC(C)C)C(=O)N1)C(=O)N[C@H](C)C(N)=O (single isomer, unassigned) [compound 217]
SJSA-1 cells
  6.25 μM % Lysed cells (1 h LDH): 2%
  25 μM % Lysed cells (1 h LDH): 1%
  50 μM % Lysed cells (1 h LDH): 2%

## CC[C@H](C)[C@H](NC(=O)[C@H](C)NC(=O)[C@H](C)NC(=O)[C@]1(C)CCCC=CCCCCCC[C@@](C)(NC(=O)[C@H](Cc2ccccc2)NC(=O)[C@@H](NC(=O)[C@H](CC(C)C)NC(C)=O)[C@@H](C)O)C(=O)N[C@@H](C)C(=O)N[C@@H](Cc2ccc(O)cc2)C(=O)N[C@@H](Cc2c[nH]c3ccccc23)C(=O)N[C@@H](C)C(=O)N[C@@H](CCC(N)=O)C(=O)N[C@@H](CC(C)C)C(=O)N1)C(=O)N[C@H](CC(C)C)C(N)=O (single isomer, unassigned) [compound 82]
SJSA-1 cells
  6.25 μM % Lysed cells (1 h LDH): 0%
  25 μM % Lysed cells (1 h LDH): 0%
  50 μM % Lysed cells (1 h LDH): 1%

## CC(=O)N[C@@H](CC(C)C)C(=O)N[C@H](C(=O)N[C@@H](Cc1ccccc1)C(=O)N[C@]1(C)CCCCCCC=CCCC[C@@](C)(C(=O)N[C@@H](C)C(=O)N[C@@H](C)C(=O)N[C@@H](Cc2c[nH]c3ccccc23)C(=O)N[C@H](C)C(N)=O)NC(=O)[C@H](CC(C)C)NC(=O)[C@H](CCC(N)=O)NC(=O)[C@H](C)NC(=O)[C@H](Cc2c[nH]c3ccccc23)NC(=O)[C@H](Cc2ccc(O)cc2)NC(=O)[C@H](C)NC1=O)[C@@H](C)O [compound 211] (Ac-LTF[R8]AYWAQL[S5]AAW[dA]-NH2; staple 4-11)
SJSA-1 cells
  6.25 μM % Lysed cells (1 h LDH): 5%
  25 μM % Lysed cells (1 h LDH): 3%
  50 μM % Lysed cells (1 h LDH): 1%

## CC[C@H](C)[C@H](NC(=O)[C@H](C)NC(=O)[C@H](C)NC(=O)[C@]1(C)CCCC=CCCCCCC[C@@](C)(NC(=O)[C@H](Cc2ccccc2)NC(C)=O)C(=O)N[C@@H](C)C(=O)N[C@@H](Cc2ccc(O)cc2)C(=O)N[C@@H](Cc2c[nH]c3ccccc23)C(=O)N[C@@H](CCC(=O)O)C(=O)NC2(CC2)C(=O)N[C@@H](CC(C)C)C(=O)N1)C(N)=O [compound 19] (Ac-F[R8]AYWE[Ac3c]L[S5]AAI-NH2; staple 2-9)
SJSA-1 cells
  6.25 μM % Lysed cells (1 h LDH): 2%
  25 μM % Lysed cells (1 h LDH): 3%
  50 μM % Lysed cells (1 h LDH): 21%

## CC(=O)N[C@@H](CC(C)C)C(=O)N[C@H](C(=O)N[C@@H](Cc1ccccc1)C(=O)N[C@]1(C)CCCCCCC=CCCC[C@@](C)(C(=O)N[C@@H](C)C(=O)N[C@@H](C)C(=O)NC(C)(C)C(=O)N[C@@H](C)C(N)=O)NC(=O)[C@H](CC(C)C)NC(=O)[C@H](CCC(N)=O)NC(=O)[C@H](C)NC(=O)[C@H](Cc2c[nH]c3ccccc23)NC(=O)[C@H](Cc2ccc(O)cc2)NC(=O)[C@H](C)NC1=O)[C@@H](C)O (single isomer, unassigned) [compound 232]
SJSA-1 cells
  6.25 μM % Lysed cells (1 h LDH): 6%
  25 μM % Lysed cells (1 h LDH): 5%
  50 μM % Lysed cells (1 h LDH): 5%

## CC(=O)N[C@@H](Cc1c[nH]cn1)C(=O)N[C@@H](CC(C)C)C(=O)N[C@H](C(=O)N[C@@H](Cc1ccccc1)C(=O)N[C@]1(C)CCCCCCC=CCCC[C@@](C)(C(=O)N[C@@H](C)C(=O)N[C@@H](C)C(=O)N[C@@H](CCC(C)C)C(=O)N[C@@H](C)C(N)=O)NC(=O)[C@H](CC(C)C)NC(=O)[C@H](CCC(N)=O)NC(=O)[C@H](Cc2c[nH]cn2)NC(=O)[C@H](Cc2c[nH]c3ccccc23)NC(=O)[C@H](Cc2c[nH]cn2)NC(=O)[C@H](Cc2c[nH]cn2)NC1=O)[C@@H](C)O [compound 32] (Ac-HLTF[R8]HHWHQL[S5]AA[hLeu]A-NH2; staple 5-12)
SJSA-1 cells
  6.25 μM % Lysed cells (1 h LDH): 0%
  25 μM % Lysed cells (1 h LDH): 2%
  50 μM % Lysed cells (1 h LDH): 0%

## CC[C@H](C)[C@H](NC(=O)[C@H](C)NC(=O)[C@H](C)NC(=O)[C@]1(C)CCCC=CCCCCCC[C@@](C)(NC(=O)[C@H](Cc2ccccc2)NC(=O)[C@@H](NC(=O)[C@H](CC(C)C)NC(C)=O)[C@@H](C)O)C(=O)N[C@@H](C)C(=O)N[C@@H](Cc2ccc(C(=O)O)cc2)C(=O)N[C@@H](Cc2c[nH]c3ccccc23)C(=O)N[C@@H](C)C(=O)N[C@@H](CCC(N)=O)C(=O)N[C@@H](CC(C)C)C(=O)N1)C(=O)N[C@H](C)C(N)=O (single isomer, unassigned) [compound 182]
SJSA-1 cells
  6.25 μM % Lysed cells (1 h LDH): 0%
  25 μM % Lysed cells (1 h LDH): 3%
  50 μM % Lysed cells (1 h LDH): 6%

## CC(=O)N[C@@H](Cc1ccccc1)C(=O)N[C@]1(C)CCCCCCC=CCCC[C@@](C)(C(=O)N[C@@H](C)C(=O)N[C@@H](C)C(=O)N[C@@H](Cc2ccccc2)C(N)=O)NC(=O)[C@H](CC(C)C)NC(=O)C2(CC2)NC(=O)[C@H](CCC(=O)O)NC(=O)[C@H](Cc2c[nH]c3ccccc23)NC(=O)[C@H](Cc2ccc(O)cc2)NC(=O)[C@H](C)NC1=O [compound 18] (Ac-F[R8]AYWE[Ac3c]L[S5]AAF-NH2; staple 2-9)
SJSA-1 cells
  6.25 μM % Lysed cells (1 h LDH): 0%
  25 μM % Lysed cells (1 h LDH): 2%
  50 μM % Lysed cells (1 h LDH): 4%

## CC(=O)N[C@@H](CC(C)C)C(=O)N[C@H](C(=O)N[C@@H](Cc1ccccc1)C(=O)N[C@]1(C)CCCCCCC=CCCC[C@@](C)(C(=O)N[C@@H](CO)C(=O)N[C@@H](C)C(=O)N[C@@H](C)C(N)=O)NC(=O)[C@H](CC(C)C)NC(=O)[C@H](CCC(N)=O)NC(=O)[C@H](C)NC(=O)[C@H](Cc2c[nH]c3ccccc23)NC(=O)[C@H](Cc2ccc(C(=O)O)cc2)NC(=O)[C@H](C)NC1=O)[C@@H](C)O (single isomer, unassigned) [compound 169]
SJSA-1 cells
  6.25 μM % Lysed cells (1 h LDH): 2%
  25 μM % Lysed cells (1 h LDH): 3%
  50 μM % Lysed cells (1 h LDH): 7%
